IC50 data for one molecule are collected here from article PMC11665983, “Inhibition of CFTR-mediated intestinal chloride secretion by nornidulin: Cellular mechanisms and anti-secretory efficacy in human intestinal epithelial cells and human colonoids” (PLOS ONE, 2024).

This test concerns the target cystic fibrosis transmembrane conductance regulator (CFTR) (Homo sapiens, UniProt P13569). The experiment in a line: CPT-cAMP-stimulated apical chloride current in basolaterally permeabilized T84 monolayers (endogenous CFTR); genistein-stimulated current also inhibited (IC50 […]). Format: cell-based.

Sequence of cystic fibrosis transmembrane conductance regulator (CFTR) (P13569 whole entry): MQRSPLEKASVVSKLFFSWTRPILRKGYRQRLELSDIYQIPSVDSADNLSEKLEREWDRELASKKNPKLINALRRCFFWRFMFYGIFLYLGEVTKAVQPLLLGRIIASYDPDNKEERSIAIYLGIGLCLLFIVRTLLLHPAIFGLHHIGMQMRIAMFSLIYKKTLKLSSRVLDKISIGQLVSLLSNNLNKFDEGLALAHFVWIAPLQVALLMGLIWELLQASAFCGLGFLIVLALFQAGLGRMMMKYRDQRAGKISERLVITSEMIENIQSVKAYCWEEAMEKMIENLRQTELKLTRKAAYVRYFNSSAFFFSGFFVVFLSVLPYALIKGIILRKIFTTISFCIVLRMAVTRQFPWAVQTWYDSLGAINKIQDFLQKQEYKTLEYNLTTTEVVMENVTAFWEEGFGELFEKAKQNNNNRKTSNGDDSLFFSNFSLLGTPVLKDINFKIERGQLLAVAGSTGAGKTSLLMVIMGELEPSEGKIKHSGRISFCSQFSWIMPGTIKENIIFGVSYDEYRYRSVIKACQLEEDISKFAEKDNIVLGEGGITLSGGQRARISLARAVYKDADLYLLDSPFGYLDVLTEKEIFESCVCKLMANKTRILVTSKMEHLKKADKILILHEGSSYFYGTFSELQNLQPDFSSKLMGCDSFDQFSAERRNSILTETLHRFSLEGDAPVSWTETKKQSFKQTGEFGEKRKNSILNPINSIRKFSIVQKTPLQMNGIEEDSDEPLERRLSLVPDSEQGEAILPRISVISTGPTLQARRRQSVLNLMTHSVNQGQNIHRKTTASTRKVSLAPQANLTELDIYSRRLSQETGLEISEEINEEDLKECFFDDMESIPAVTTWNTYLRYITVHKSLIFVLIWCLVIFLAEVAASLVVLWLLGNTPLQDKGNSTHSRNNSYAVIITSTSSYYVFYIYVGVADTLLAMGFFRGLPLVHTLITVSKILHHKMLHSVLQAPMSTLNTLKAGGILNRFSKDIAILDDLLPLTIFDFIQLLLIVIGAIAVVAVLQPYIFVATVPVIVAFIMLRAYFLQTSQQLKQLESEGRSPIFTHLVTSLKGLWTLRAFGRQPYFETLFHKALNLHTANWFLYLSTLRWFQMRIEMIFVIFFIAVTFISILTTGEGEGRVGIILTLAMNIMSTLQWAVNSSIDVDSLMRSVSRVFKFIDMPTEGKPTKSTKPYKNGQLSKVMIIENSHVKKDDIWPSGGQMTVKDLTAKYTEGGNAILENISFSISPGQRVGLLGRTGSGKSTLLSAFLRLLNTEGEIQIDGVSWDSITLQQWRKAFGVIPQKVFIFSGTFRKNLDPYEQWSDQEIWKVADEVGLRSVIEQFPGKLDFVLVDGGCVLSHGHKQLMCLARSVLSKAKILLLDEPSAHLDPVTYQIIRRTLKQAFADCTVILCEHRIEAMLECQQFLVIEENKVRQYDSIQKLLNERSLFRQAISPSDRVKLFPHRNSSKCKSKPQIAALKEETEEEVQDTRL

For the molecule `C/C=C(\C)c1c(Cl)c(O)c(C)c2c1Oc1c(Cl)c(O)c(Cl)c(C)c1C(=O)O2` [N9, nornidulin], the IC50 stood at 1030 ± 130 nM.

A word on the IC50: it is the point on the concentration scale where inhibition reaches its midpoint.
